Assay results taken from ChEMBL document CHEMBL5046296 (J Med Chem, 2022).
In brackets after ≈: the same amount, converted by molar mass.

Tests used:
[1] = Solubility of the compound in PEG400; assay type: physicochemical
[2] = AUC (infinity) in mouse at 2 mg/kg, iv; assay type: ADME, organism-based; parameters: time infinity, route intravenous, dose 2 mg/kg; conditions: in vivo
[3] = Tmax in monkey at 3 mg/kg, po; assay type: ADME, organism-based, Macaca mulatta; conditions: rhesus monkey, in vivo
[4] = Metabolic stability in mouse liver microsomes assessed as CYP450-mediated metabolism by measuring parent compound remaining at 0.5 uM incubated for 10 mins in presence of NADPH by LC-MS/MS analysis; assay type: ADME; conditions: read-out: Stability
[5] = Permeability of compound at pH 5.5 measured after 4 hrs by PAMPA assay; assay type: ADME; conditions: read-out: permeability
[6] = Permeability across apical to basolateral side in human Caco-2 cells at 3 uM measured after 2 hrs by LC-MS/MS analysis; assay type: ADME, cell-based; conditions: read-out: permeability
[7] = Protein binding in cynomolgus monkey plasma assessed as unbound fraction at 10 uM incubated for 5 hrs by LC-MS/MS analysis; assay type: ADME, cell-free, Macaca fascicularis
[8] = Metabolic stability in dog liver microsomes assessed as half life; assay type: ADME, Canis lupus familiaris, Microsome
[9] = molecular target: Cytochrome P450 2C19 (Homo sapiens, UniProt P33261); experiment: Inhibition of CYP2C19 (unknown origin); assay type: ADME
[10] = molecular target: Cytochrome P450 2C9 (Homo sapiens, UniProt P11712); experiment: Inhibition of CYP2C9 (unknown origin); assay type: ADME
[11] = molecular target: Cytochrome P450 2B6 (Homo sapiens, UniProt P20813); experiment: Inhibition of CYP2B6 (unknown origin); assay type: ADME
[12] = molecular target: Cytochrome P450 3A4 (Homo sapiens, UniProt P08684); experiment: Time dependent inhibition of CYP3A4 (unknown origin) using TST as substrate measured at 30 mins; assay type: ADME
[13] = molecular target: Solute carrier organic anion transporter family member 1B3 (Homo sapiens, UniProt Q9NPD5); experiment: Inhibition of OATP1B3 (unknown origin)
[14] = molecular target: Organic anion transporter 3 (Homo sapiens, UniProt Q8TCC7); experiment: Inhibition of OAT3 (unknown origin)
[15] = molecular target: Broad substrate specificity ATP-binding cassette transporter ABCG2 (Homo sapiens, UniProt Q9UNQ0); experiment: Inhibition of BCRP (unknown origin)
[16] = organism: Homo sapiens; experiment: Inhibition of calcium channel (unknown origin) at 10 uM by electrophysiological method relative to control
[17] = system: Rattus norvegicus; experiment: Analgesic activity in streptozotocin induced diabetic peripheral neuropathic mechanical allodynia in overnight fasted Sprague-Dawley rat model assessed as reduction in pain response at 0.3 mg/kg, po measured after 5.5 hrs post treatment; assay type: functional; parameters: scale not given: the % may be the effect or the level left
[18] = Cmax in Sprague-Dawley rat plasma with CCI induced thermal hyperalgesia at 0.1 mg/kg, po measured at 5.75 hrs post dose; assay type: ADME, organism-based; parameters: route oral, dose 0.1 mg/kg, time 5.75 hrs
[19] = Cmax in Sprague-Dawley rat plasma with CCI induced thermal hyperalgesia at 0.3 mg/kg, po measured at 5.75 hrs post dose; assay type: ADME, organism-based; parameters: route oral, dose 0.3 mg/kg, time 5.75 hrs
[20] = Drug concentration in Sprague-Dawley rat spinal cord with CCI induced thermal hyperalgesia at 0.1 mg/kg, po measured at 5.75 hrs post dose; assay type: ADME, organism-based; conditions: read-out: Ct
[21] = Drug concentration in Sprague-Dawley rat spinal cord with CCI induced thermal hyperalgesia at 1 mg/kg, po measured at 5.75 hrs post dose; assay type: ADME, organism-based; conditions: read-out: Ct
[22] = system: Rattus norvegicus; experiment: Analgesic activity in CCI induced thermal hyperalgesia Sprague-Dawley rat model assessed as efficacy at 0.3 mg/kg, po measured at 5.75 hrs post dose; assay type: functional
[23] = Drug uptake in Spinal cord of CCI induced thermal hyperalgesia Sprague-Dawley rat model assessed as spinal occupancy at 0.1 mg/kg, po measured at 5.75 hrs post dose in presence of [3H]BMT-046091; assay type: ADME, organism-based; conditions: in vivo
[24] = Cmax in overnight fasted Sprague-Dawley rat plasma with streptozotocin induced diabetic peripheral neuropathic mechanical allodynia at 0.1 mg/kg, po measured at 5.5 hrs post dose; assay type: ADME, organism-based; parameters: route oral, time 5.5 hrs, dose 0.1 mg/kg
[25] = Cmax in overnight fasted Sprague-Dawley rat plasma with streptozotocin induced diabetic peripheral neuropathic mechanical allodynia at 0.3 mg/kg, po measured at 5.5 hrs post dose; assay type: ADME, organism-based; parameters: route oral, time 5.5 hrs, dose 0.3 mg/kg
[26] = Drug concentration in overnight fasted Sprague-Dawley rat spinal cord with streptozotocin induced diabetic peripheral neuropathic mechanical allodynia at 0.1 mg/kg, po measured at 5.5 hrs post dose; assay type: ADME, organism-based; conditions: read-out: Ct
[27] = Drug concentration in overnight fasted Sprague-Dawley rat spinal cord with streptozotocin induced diabetic peripheral neuropathic mechanical allodynia at 1 mg/kg, po measured at 5.5 hrs post dose; assay type: ADME, organism-based; conditions: read-out: Ct
[28] = Ratio of drug concentration in spinal cord to plasma of overnight fasted Sprague-Dawley rat model with streptozotocin induced diabetic peripheral neuropathic mechanical allodynia at 0.1 mg/kg, po measured at 5.5 hrs post dose; assay type: ADME, organism-based
[29] = Ratio of drug concentration in spinal cord to plasma of overnight fasted Sprague-Dawley rat model with streptozotocin induced diabetic peripheral neuropathic mechanical allodynia at 3 mg/kg, po measured at 5.5 hrs post dose; assay type: ADME, organism-based
[30] = Cmax in naive Sprague-Dawley rat plasma at 10 mg/kg, po measured at 5.25 hrs post dose; assay type: ADME, organism-based; parameters: route oral, dose 10 mg/kg, time 5.25 hrs
[31] = Cmax in naive Sprague-Dawley rat plasma at 30 mg/kg, po measured at 5.25 hrs post dose; assay type: ADME, organism-based; parameters: route oral, time 5.25 hrs, dose 30 mg/kg
[32] = Drug concentration in naive Sprague-Dawley rat spinal cord at 10 mg/kg, po measured at 5.25 hrs post dose; assay type: ADME, organism-based; conditions: read-out: Ct
[33] = Drug concentration in naive Sprague-Dawley rat spinal cord at 30 mg/kg, po measured at 5.25 hrs post dose; assay type: ADME, organism-based; conditions: read-out: Ct
[34] = Ratio of drug concentration in spinal cord to plasma in Sprague-Dawley rat at 10 mg/kg, po measured at 5.25 hrs post dose; assay type: ADME, organism-based
[35] = AUC (infinity) in rat at 3 mg/kg, po; assay type: ADME, organism-based; parameters: route oral, time infinity, dose 3 mg/kg; conditions: in vivo
[36] = AUC (infinity) in dog at 3 mg/kg, po; assay type: ADME, organism-based, Canis lupus familiaris; parameters: route oral, time infinity, dose 3 mg/kg; conditions: in vivo
[37] = AUC (infinity) in monkey at 2 mg/kg, iv; assay type: ADME, organism-based, Macaca mulatta; parameters: time infinity, route intravenous, dose 2 mg/kg; conditions: rhesus monkey, in vivo
[38] = Apparent elimination half life in monkey at 2 mg/kg, iv; assay type: ADME, organism-based, Macaca mulatta; conditions: rhesus monkey, in vivo, read-out: betat1/2(app) (converted)
[39] = MRT in rat at 2 mg/kg, iv; assay type: ADME, organism-based; conditions: in vivo
[40] = MRT in dog at 2 mg/kg, iv; assay type: ADME, organism-based, Canis lupus familiaris; conditions: in vivo
[41] = MRT in monkey at 2 mg/kg, iv; assay type: ADME, organism-based, Macaca mulatta; conditions: rhesus monkey, in vivo
[42] = Volume of distribution at steady state in mouse at 2 mg/kg, iv; assay type: ADME, organism-based; conditions: in vivo, read-out: Vdss
[43] = Volume of distribution at steady state in rat at 2 mg/kg, iv; assay type: ADME, organism-based; conditions: in vivo, read-out: Vdss
[44] = Volume of distribution at steady state in dog at 2 mg/kg, iv; assay type: ADME, organism-based, Canis lupus familiaris; conditions: in vivo, read-out: Vdss
[45] = Oral bioavailability in dog at 3 mg/kg; assay type: ADME, organism-based, Canis lupus familiaris; conditions: in vivo
[46] = molecular target: Citron Rho-interacting kinase (Homo sapiens, UniProt O14578); experiment: Inhibition of CRIK (unknown origin)
[47] = molecular target: MAP kinase-interacting serine/threonine-protein kinase 1 (Homo sapiens, UniProt Q9BUB5); experiment: Inhibition of MNK1 (unknown origin)
[48] = Solubility of the compound at pH 1.2 using crystalline form of sample; assay type: physicochemical
[49] = Solubility of the compound in propylene glycol; assay type: physicochemical

Citron Rho-interacting kinase, sequence (O14578 whole entry): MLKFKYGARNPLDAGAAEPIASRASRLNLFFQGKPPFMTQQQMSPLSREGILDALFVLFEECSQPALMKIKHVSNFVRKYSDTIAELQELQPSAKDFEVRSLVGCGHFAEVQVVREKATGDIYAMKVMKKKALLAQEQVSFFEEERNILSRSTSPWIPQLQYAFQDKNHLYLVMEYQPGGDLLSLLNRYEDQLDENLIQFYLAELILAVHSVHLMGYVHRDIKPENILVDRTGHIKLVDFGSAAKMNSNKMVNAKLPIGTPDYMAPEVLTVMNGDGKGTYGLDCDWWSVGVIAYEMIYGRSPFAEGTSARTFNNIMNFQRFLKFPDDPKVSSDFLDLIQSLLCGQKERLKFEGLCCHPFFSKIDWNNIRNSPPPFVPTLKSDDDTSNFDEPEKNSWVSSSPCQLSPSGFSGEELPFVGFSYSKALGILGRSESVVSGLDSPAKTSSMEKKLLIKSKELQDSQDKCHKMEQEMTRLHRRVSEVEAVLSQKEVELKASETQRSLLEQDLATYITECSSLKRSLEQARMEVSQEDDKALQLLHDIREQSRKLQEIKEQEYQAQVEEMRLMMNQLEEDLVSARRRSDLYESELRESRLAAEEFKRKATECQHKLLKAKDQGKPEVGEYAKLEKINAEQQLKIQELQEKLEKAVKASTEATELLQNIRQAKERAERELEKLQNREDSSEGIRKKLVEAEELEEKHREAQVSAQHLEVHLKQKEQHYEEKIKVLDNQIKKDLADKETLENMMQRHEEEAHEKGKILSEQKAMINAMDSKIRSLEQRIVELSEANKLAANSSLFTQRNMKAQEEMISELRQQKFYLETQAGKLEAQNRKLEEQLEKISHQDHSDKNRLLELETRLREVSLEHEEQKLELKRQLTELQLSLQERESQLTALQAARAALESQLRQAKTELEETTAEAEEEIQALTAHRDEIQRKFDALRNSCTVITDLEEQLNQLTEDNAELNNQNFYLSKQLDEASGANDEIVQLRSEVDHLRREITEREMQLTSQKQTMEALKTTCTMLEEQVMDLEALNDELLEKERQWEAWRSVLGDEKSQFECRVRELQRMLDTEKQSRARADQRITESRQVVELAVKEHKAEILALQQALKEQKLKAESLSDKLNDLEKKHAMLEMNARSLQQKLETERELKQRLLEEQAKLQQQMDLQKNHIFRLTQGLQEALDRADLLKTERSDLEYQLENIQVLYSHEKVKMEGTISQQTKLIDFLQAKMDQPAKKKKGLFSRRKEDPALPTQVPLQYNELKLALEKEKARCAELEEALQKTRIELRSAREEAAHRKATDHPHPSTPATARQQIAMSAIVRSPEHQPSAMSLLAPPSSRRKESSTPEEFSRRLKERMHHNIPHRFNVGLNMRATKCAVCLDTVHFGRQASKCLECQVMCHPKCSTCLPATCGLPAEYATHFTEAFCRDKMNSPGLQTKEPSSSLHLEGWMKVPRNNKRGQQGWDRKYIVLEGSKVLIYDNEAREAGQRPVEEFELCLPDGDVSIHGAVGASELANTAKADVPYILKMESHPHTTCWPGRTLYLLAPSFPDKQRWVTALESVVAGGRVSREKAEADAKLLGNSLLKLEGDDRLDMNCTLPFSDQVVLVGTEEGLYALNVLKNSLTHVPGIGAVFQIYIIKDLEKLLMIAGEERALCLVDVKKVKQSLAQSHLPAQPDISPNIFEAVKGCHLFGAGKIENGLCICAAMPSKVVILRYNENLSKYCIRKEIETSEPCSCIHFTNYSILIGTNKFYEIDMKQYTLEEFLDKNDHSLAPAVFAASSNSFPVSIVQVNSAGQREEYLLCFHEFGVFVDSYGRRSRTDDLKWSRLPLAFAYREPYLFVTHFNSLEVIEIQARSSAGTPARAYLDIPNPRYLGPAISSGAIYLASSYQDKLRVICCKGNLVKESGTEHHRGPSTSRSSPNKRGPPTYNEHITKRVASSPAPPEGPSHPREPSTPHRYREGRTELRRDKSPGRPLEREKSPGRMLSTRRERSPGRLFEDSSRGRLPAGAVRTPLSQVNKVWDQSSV
Cytochrome P450 2C19, sequence (P33261 whole entry): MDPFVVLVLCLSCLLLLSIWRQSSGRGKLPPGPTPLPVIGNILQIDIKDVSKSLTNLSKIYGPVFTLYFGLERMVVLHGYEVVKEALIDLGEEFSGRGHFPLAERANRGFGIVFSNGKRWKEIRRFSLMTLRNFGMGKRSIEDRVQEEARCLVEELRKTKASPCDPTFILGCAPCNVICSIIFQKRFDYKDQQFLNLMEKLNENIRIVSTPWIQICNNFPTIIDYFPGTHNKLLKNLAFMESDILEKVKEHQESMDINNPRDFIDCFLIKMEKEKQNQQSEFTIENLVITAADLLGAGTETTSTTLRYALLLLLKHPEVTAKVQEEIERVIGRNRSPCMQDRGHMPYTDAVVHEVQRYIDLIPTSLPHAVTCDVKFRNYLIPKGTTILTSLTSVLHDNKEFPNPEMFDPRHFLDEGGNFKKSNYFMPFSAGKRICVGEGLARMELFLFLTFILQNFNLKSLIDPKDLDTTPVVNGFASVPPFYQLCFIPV
MAP kinase-interacting serine/threonine-protein kinase 1, sequence (Q9BUB5 whole entry): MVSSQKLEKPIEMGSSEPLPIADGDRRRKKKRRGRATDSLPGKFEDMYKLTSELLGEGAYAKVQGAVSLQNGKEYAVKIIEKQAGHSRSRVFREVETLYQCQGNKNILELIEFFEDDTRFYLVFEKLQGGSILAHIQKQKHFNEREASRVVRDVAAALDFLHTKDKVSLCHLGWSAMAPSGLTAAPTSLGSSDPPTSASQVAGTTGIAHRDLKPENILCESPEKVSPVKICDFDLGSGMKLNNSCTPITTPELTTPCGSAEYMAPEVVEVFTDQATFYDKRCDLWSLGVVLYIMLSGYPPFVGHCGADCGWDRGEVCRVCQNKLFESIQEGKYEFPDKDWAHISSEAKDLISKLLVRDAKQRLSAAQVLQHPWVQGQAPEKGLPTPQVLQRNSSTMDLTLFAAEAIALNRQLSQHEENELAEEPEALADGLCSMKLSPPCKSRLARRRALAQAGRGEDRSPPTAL
Cytochrome P450 2B6, sequence (P20813 whole entry): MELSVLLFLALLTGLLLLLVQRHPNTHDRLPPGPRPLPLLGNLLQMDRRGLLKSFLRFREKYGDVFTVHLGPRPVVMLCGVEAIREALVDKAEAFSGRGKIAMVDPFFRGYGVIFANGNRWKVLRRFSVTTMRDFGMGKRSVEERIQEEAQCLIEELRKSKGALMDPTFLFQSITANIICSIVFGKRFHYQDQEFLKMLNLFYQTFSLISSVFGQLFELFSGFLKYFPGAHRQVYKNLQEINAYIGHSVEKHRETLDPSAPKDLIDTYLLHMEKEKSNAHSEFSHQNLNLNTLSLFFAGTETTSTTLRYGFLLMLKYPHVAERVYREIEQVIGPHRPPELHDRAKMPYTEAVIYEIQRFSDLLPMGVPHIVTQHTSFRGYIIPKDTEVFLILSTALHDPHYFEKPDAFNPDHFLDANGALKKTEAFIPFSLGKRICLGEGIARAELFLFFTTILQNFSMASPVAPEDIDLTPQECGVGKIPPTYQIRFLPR
Broad substrate specificity ATP-binding cassette transporter ABCG2, sequence (Q9UNQ0 whole entry): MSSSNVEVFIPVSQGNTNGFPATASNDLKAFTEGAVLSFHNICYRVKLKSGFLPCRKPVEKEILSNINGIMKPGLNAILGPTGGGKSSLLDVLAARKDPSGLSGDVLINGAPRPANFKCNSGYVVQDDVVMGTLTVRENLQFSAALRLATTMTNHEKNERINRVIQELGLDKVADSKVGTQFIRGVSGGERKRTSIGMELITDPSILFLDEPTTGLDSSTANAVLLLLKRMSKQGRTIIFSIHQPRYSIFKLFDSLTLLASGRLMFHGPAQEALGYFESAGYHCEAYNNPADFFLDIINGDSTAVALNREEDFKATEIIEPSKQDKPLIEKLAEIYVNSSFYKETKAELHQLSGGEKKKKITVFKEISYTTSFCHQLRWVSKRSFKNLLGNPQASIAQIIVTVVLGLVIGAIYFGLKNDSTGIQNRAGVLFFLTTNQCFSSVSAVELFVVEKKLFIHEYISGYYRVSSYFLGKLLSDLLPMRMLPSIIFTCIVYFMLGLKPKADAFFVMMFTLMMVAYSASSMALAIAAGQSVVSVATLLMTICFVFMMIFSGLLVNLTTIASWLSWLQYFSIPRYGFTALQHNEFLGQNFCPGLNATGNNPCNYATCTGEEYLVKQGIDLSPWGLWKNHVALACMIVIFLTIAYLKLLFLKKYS
Cytochrome P450 3A4, sequence (P08684 whole entry): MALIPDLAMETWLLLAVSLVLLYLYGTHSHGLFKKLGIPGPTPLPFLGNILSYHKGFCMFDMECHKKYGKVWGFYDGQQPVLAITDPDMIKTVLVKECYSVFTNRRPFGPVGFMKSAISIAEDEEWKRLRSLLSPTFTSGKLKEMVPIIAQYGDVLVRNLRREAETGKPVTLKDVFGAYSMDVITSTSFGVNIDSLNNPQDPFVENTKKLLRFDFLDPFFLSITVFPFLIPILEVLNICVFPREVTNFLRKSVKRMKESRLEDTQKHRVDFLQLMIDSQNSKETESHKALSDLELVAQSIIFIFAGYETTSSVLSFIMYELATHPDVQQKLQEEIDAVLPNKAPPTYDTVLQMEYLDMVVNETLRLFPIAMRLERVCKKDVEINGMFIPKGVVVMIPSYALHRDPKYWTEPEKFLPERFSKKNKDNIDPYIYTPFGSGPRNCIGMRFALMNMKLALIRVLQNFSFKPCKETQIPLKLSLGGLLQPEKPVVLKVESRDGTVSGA

Question: Which results are given for CC(C)C[C@](C)(N)COc1ccc(-c2ccnc(C(F)F)c2)nc1C(F)F [PILAVAPADIN]?
Answer: solubility [1]: > 50 mg/mL; AUC(0-inf) [2]: 6710 ng·h/mL; Tmax [3]: 4 h; remaining at 10 min, 0.5 µM [4]: 86%; Papp at 4 h [5]: 60 ×10⁻⁶ cm/s; Papp A→B at 2 h, 3 µM [6]: 19.9 ×10⁻⁶ cm/s; fraction unbound at 5 h, 10 µM [7]: 0.053; half-life [8]: 30 min; IC50 [9]: > 20 µM; IC50 [10]: > 20 µM; IC50 [11]: > 20 µM; IC50 [12]: > 40 µM; IC50 [13]: > 30 µM; IC50 [14]: > 30 µM; IC50 [15]: 5.4 µM; inhibition [16]: 40%; Activity [17]: 20%; Cmax [18]: 5 nM; Cmax [19]: 19 nM; concentration at 5.75 h [20]: 214 nM; concentration at 5.75 h [21]: 1220 nM; Efficacy [22]: 68%; Occ [23]: 37%; Cmax [24]: 6 nM; Cmax [25]: 25 nM; concentration at 5.5 h [26]: 75 nM; concentration at 5.5 h [27]: 852 nM; Kp at 5.5 h [28]: 13; Kp at 5.5 h [29]: 7; Cmax [30]: 780 nM; Cmax [31]: 1650 nM; concentration at 5.25 h [32]: 16.1 µM; concentration at 5.25 h [33]: 32.6 µM; Kp at 5.25 h [34]: 21; AUC(0-inf) [35]: 880 ng·h/mL; AUC(0-inf) [36]: 1630 ng·h/mL; AUC(0-inf) [37]: 980 ng·h/mL; half-life [38]: 342 min; MRT [39]: 11.6 h; MRT [40]: 6.9 h; MRT [41]: 8.5 h; Vd [42]: 19 L/kg; Vd [43]: 19.6 L/kg; Vd [44]: 11.8 L/kg; bioavailability [45]: 87%; IC50 [46]: 410 nM; IC50 [47]: 160 nM; solubility thermodynamic [48]: 2000 µg/mL (≈ 5.19 mM); solubility [49]: > 50 mg/mL
